Data reported in patent US10053468B2, “Heterocyclic compound” (TAKEDA PHARMACEUTICAL COMPANY LIMITED, priority 2013, dated 2018).
Read-outs that look alike come from different tables or passages of the source.

Assays:
[1] = tested on: IL-17A gene expression; assay: Effect on IL-23-induced cytokine expression in mice; format: in vivo, Balb/c mice; conditions: Mus musculus, 30 min before and 8 hr after IL-23, versus the negative control group, read-out: Percent inhibition of IL-17A gene expression; for inhibition in vivo at 10 mg/kg: dose 10 mg/kg oral; for inhibition in vivo at 30 mg/kg: dose 30 mg/kg oral
Procedure: Effect on IL-23-induced Cytokine Expression in Mice
A mouse IL-23 solution (500 ng/10 μL, prepared by Takeda Pharmaceutical Company Limited) or PBS (10 μL, negative control group) was administered intradermally in the ear of Balb/c mice (Charles River Japan, male, 7 weeks old). Twenty-four hr after administration, the ear was resected under isoflurane anesthesia. The test compound was suspended in 0.5% methylcellulose and administered orally 30 min before and 8 hr after IL-23 administration.
RNA extraction from the ear tissue and quantitative PCR were performed as follows. Specifically, ear tissue 5 mm in diameter was punched from an area of the resected ear centering on the IL-23 injection site, and the tissue was immersed in RNAlater (QIAGEN) for at least 18 hr. The RNAlater-treated ear tissue was homogenized in 350 μL of RLT buffer (RNeasy mini kit, QIAGEN) and treated (55° C., 10 min) with Proteinase K (QIAGEN). Total RNA was then extracted according to the RNeasy mini kit protocol. The RNA thus obtained was then reverse transcribed into cDNA using the High-Capacity RNA-to-cDNA kit (Applied Biosystems), and the amount of each cytokine expressions was measured by real-time PCR (Viia7™, Applied Biosystems). The PCR buffer used was TaqMan Fast Advanced Master Mix (Applied Biosystems), and TaqMan Gene Expression Assays (Applied Biosystems) Mm00439618 ml (IL-17A) and 4352341E (β-actin) were used for cytokine gene detection. The IL-17A gene expression level was normalized to the R-actin gene expression level, and the percent inhibition of IL-17A gene expression with the test compound was then calculated.
The results obtained with the above-described method (percent inhibition of IL-17A gene expression with oral administration of the test compound) are shown in Table 5.

[2] = biological target: T1, RORγt (Homo sapiens, UniProt P51449); assay: Jurkat reporter test (human IL-17 ROR response element luciferase, RORγt vector); format: cell-based; conditions: read-out: Luminescence level inhibitory rate at test compound 3 μM (%)
T1 sequence (P51449 1-497 isoform P51449-2): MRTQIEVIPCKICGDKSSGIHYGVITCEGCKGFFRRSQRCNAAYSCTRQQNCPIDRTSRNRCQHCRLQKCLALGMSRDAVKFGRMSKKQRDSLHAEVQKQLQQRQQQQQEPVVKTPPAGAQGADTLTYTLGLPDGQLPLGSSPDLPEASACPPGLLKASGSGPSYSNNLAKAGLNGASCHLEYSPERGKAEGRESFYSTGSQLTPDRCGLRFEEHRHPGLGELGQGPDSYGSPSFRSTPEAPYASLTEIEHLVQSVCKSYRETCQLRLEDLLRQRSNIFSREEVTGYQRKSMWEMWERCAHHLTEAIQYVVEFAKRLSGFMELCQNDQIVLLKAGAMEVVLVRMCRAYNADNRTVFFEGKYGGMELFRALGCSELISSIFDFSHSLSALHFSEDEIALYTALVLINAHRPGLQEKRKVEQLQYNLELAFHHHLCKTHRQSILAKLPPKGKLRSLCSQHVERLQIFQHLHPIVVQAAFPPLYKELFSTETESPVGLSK
Summary of the method: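 Luminescence (Bright-Glo, 10 min, RT) was measured after overnight compound treatment of electroporated Jurkat cells (1350 V, 10 ms interval, 3 pulses). The reaction medium was RPMI with 10% lipid-reduced FCS, 10 mM HEPES (pH 7.5) and 5 μM lovastatin.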

[3] = biological target: T1, RORγt; assay: RORγt binding test using fluorescent-labeled synthetic ligand (TR-FRET); conditions: read-out: Binding inhibitory rate of fluorescent-labeled synthetic ligand to RORγt at test compound 1 μM (%)
Summary of the method: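 His-tagged RORγt (diluted to 240 nM) with compound, then fluorescent synthetic ligand (diluted to 12 μM), 20 min at room temperature, followed by Tb anti-His antibody (diluted to 8 nM), 20 min.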

[4] = biological target: T1, RORγt; assay: Cofactor recruitment test (Alpha Screen, biotinylated SRC-1 peptide); format: biochemical; conditions: read-out: Signal value inhibitory rate at test compound 1 μM (%)
Procedure: Cofactor Recruitment Test
Cofactor recruitment test was performed by Alpha Screen (Histidine Detection Kit, PerkinElmer) method. First, a test compound was diluted with an assay buffer (50 mM Tris-HCl (pH 7.5), 50 mM KCl, 1 mM DTT, 0.1% BSA) and added to a 384 well plate by 5 μL. […] The mixture was stood in a dark place for 1 hr, and the signal value was measured by Envision (PerkinElmer).

[5] = biological target: T1, RORγt; assay: RORγt binding test using fluorescent-labeled cholesterol (TR-FRET); conditions: read-out: Binding inhibitory rate of fluorescent-labeled cholesterol to RORγt at test compound 1 μM (%)
Summary of the method: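 After 20 min at room temperature with His-tagged RORγt and BODIPY-cholesterol in pH 7.5 Tris buffer (NaCl, DTT, BSA), compound wells got terbium anti-His antibody for another 20 min. Time-resolved FRET was read with excitation 320 nm, emission 520 nm and a 100 µs delay.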

| inhibition at 3 µM ([2]; test compound 3 μM, Jurkat cells) | SMILES | inhibition in vivo at 10 mg/kg [1] | inhibition at 3 µM ([2]; Jurkat) | inhibition at 1 µM [3] | inhibition at 1 µM [4] | inhibition in vivo at 30 mg/kg [1] | inhibition at 1 µM [5] |
| --- | --- | --- | --- | --- | --- | --- | --- |
| – | COc1ccc2c(c1)CCN(C(=O)N1CC(CC(=O)O)C1)[C@H]2C(=O)Nc1ccc([Si](C)(C)C)c(F)c1 [Example 279, (1-(((1R)-1-((3-fluoro-4-(trimethylsilyl)phenyl)carbamoyl)-6-methoxy-3,4-dihydroisoquinolin-2(1H)-yl)carbonyl)azetidin-3-yl)acetic acid] | 71% | 100% | 102% | 89% | – | – |
| – | COc1ccc2c(c1)CCN(C(=O)CCCC(=O)O)[C@H]2C(=O)Nc1ccc([Si](C)(C)C)c(F)c1 [Example 135, 5-((1R)-1-((3-fluoro-4-(trimethylsilyl)phenyl)carbamoyl)-6-methoxy-3,4-dihydroisoquinolin-2(1H)-yl)-5-oxopentanoic acid] | – | 104% | 101% | 97% | 68% | 102% |
| – | COc1ccc2c(n1)CCN(C(=O)CCCC(=O)O)[C@H]2C(=O)Nc1cc(F)c([Si](C)(C)C)c(F)c1 [Example 125, 5-((5R)-5-((3,5-difluoro-4-(trimethylsilyl)phenyl)carbamoyl)-2-methoxy-7,8-dihydro-1,6-naphthyridin-6(5H)-yl)-5-oxopentanoic acid] | – | – | – | – | 89% | – |
| – | COc1ccc2c(n1)CCN(C(=O)N1CC(CC(=O)O)C1)[C@H]2C(=O)Nc1cc(F)c([Si](C)(C)C)c(F)c1 [Example 281, (1-(((5R)-5-((3,5-difluoro-4-(trimethylsilyl)phenyl)carbamoyl)-2-methoxy-7,8-dihydro-1,6-naphthyridin-6(5H)-yl)carbonyl)azetidin-3-yl)acetic acid] | 93% | 102% | 102% | 89% | – | – |
| – | COc1ccc2c(c1)CCN(C(=O)CCCC(=O)O)[C@H]2C(=O)Nc1cc(F)c(C(C)(C)C)c(F)c1 [Example 109, 5-((1R)-1-((4-tert-butyl-3,5-difluorophenyl)carbamoyl)-6-methoxy-3,4-dihydroisoquinolin-2(1H)-yl)-5-oxopentanoic acid] | – | – | – | – | 96% | – |
| – | COc1ccc2c(c1)CCN(C(=O)CCCC(=O)O)[C@H]2C(=O)Nc1cc(F)c2c(c1)CCC2(C)C [Example 176, 5-((1R)-1-((7-fluoro-1,1-dimethyl-2,3-dihydro-1H-inden-5-yl)carbamoyl)-6-methoxy-3,4-dihydroisoquinolin-2 (1H)-yl)-5-oxopentanoic acid] | – | – | – | – | 91% | – |
| – | COCc1ccc2c(c1)CCN(C(=O)c1cc(O)no1)[C@H]2C(=O)Nc1cc(F)c([Si](C)(C)C)c(F)c1 [Example 131, (1R)-N-(3,5-difluoro-4-(trimethylsilyl)phenyl)-2-((3-hydroxy-1,2-oxazol-5-yl)carbonyl)-6-(methoxymethyl)-1,2,3,4-tetrahydroisoquinoline-1-carboxamide] | – | 103% | 101% | 100% | – | 103% |
| – | CCOc1ccc2c(n1)CCN(C(=O)CCCC(=O)O)[C@H]2C(=O)Nc1cc(F)c([Si](C)(C)C)c(F)c1 [Example 129, 5-((5R)-5-((3,5-difluoro-4-(trimethylsilyl)phenyl)carbamoyl)-2-ethoxy-7,8-dihydro-1,6-naphthyridin-6(5H)-yl)-5-oxopentanoic acid] | – | 102% | 101% | 99% | – | 98% |
| 83% | CCOc1ccc2c(c1)CCN(C(=O)Cc1cc(O)no1)[C@H]2C(=O)Nc1cc(F)c(C(C)(C)COCCOC)c(F)c1 [Example 143, (1R)-N-(3,5-difluoro-4-(1-(2-methoxyethoxy)-2-methylpropan-2-yl)phenyl)-6-ethoxy-2-((3-hydroxy-1,2-oxazol-5-yl)acetyl)-1,2,3,4-tetrahydroisoquinoline-1-carboxamide] | – | – | 101% | 56% | – | 101% |
